Laboratory results published in patent US10016427B2, “Hydrochloride salt of((1S,2S,4R)-4-{4-[(1S)-2,3-dihydro-1H-inden-1-ylamino]-7H-pyrrolo[2,3-D]pyrimidin-7-YL}-2-hydroxycyclopentyl) methyl sulfamate” (Millennium Pharmaceuticals, Inc., priority 2009, dated 2018).
Counter-ions that a name gives are not always drawn.

Tests used:
[1] = Solubility of Form 1 in water; type: physicochemical
Source text: The resulting solution has a pH of about 2.33.

[2] = Solid state storage stability (Peak Area % measured by HPLC); type: physicochemical; conditions: for stability on storage: compared with the potassium salt; for Peak Area % 6 weeks / Peak Area % Initial / Peak Area % 15 days: solid state; for Peak Area % Initial: -20° C. freezer
Source text: The following table summarizes stability data obtained (Peak Area % measured by HPLC) for solid state ((1S,2S,4R)-4-{4-[(1S)-2,3-dihydro-1H-inden-1-ylamino]-7H-pyrrolo[2,3-d]pyrimidin-7-yl}-2-hydroxycyclopentyl)methyl sulfamate.

solubility ([1]; pH 2.33, thermodynamic from solid, in water) [µg/mL] | pH of the resulting solution ([1]; solution resulting from dissolution in water) | stability on storage [2] | Peak Area % 6 weeks ([2]; 5° C. refrigerator) [%] | Peak Area % 6 weeks ([2]; 40° C./75% RH) [%] | Peak Area % 6 weeks ([2]; 60° C./75% RH) [%] | Peak Area % Initial [2] [%] | Peak Area % 15 days ([2]; 5° C. refrigerator) [%] | Peak Area % 15 days ([2]; 40° C./75% RH) [%] | Peak Area % 15 days ([2]; 60° C./75% RH) [%] | Compound
~7800 | about 2.33 | increased stability on storage | 99.3 | 98.7 | 91.3 | 99.2 | – | – | – | NS(=O)(=O)OC[C@@H]1C[C@@H](n2ccc3c(N[C@H]4CCc5ccccc54)ncnc32)C[C@@H]1O [HCl Salt Form 1, ((1S,2S,4R)-4-{4-[(1S)-2,3-dihydro-1H-inden-1-ylamino]-7H-pyrrolo[2,3-d]pyrimidin-7-yl}-2-hydroxycyclopentyl)methyl sulfamate hydrochloride Form 1]
– | – | increased stability on storage | – | – | – | 98.3 | 98.2 | 97.8 | 88.6 | NS(=O)(=O)OC[C@@H]1C[C@@H](n2ccc3c(N[C@H]4CCc5ccccc54)ncnc32)C[C@@H]1O [HCl Salt Form 2, ((1S,2S,4R)-4-{4-[(1S)-2,3-dihydro-1H-inden-1-ylamino]-7H-pyrrolo[2,3-d]pyrimidin-7-yl}-2-hydroxycyclopentyl)methyl sulfamate hydrochloride Form 2]
– | – | – | – | – | – | 96.0 | 96.4 | 94.5 | 93.2 | NS(=O)(=O)OC[C@@H]1C[C@@H](n2ccc3c(N[C@H]4CCc5ccccc54)ncnc32)C[C@@H]1O [free base (amorphous), ((1S,2S,4R)-4-{4-[(1S)-2,3-dihydro-1H-inden-1-ylamino]-7H-pyrrolo[2,3-d]pyrimidin-7-yl}-2-hydroxycyclopentyl)methyl sulfamate, reference compound]
– | – | – | – | – | – | 96.9 | 97.6 | 88.7 | 38.3 | NS(=O)(=O)OC[C@@H]1C[C@@H](n2ccc3c(N[C@H]4CCc5ccccc54)ncnc32)C[C@@H]1O.[K] [potassium salt (amorphous), potassium salt of ((1S,2S,4R)-4-{4-[(1S)-2,3-dihydro-1H-inden-1-ylamino]-7H-pyrrolo[2,3-d]pyrimidin-7-yl}-2-hydroxycyclopentyl)methyl sulfamate, reference compound]
